In patent US20160016907A1, “PYRIDINE DERIVATIVES AS MUSCARINIC M1 RECEPTOR POSITIVE ALLOSTERIC MODULATORS” (PFIZER INC., priority 2014, published 2016):
Where a name gives a salt, the structure may show the parent alone.

Target: T1, human M1 muscarinic acetylcholine receptors (Homo sapiens, UniProt P11229)
T1 sequence (P11229 1-460): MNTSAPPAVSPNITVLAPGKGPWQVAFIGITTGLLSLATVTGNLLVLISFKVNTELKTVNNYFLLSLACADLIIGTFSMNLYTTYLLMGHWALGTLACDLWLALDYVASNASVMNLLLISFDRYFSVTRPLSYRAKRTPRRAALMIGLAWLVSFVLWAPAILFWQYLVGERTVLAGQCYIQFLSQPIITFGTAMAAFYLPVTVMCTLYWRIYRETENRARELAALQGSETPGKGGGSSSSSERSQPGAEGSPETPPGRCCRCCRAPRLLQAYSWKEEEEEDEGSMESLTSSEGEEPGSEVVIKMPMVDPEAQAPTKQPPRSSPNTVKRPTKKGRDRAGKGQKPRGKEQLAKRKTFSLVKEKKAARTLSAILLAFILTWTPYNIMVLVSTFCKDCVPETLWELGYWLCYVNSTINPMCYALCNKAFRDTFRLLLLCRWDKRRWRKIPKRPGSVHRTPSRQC
Assay: M1 FLIPR assay (PAM, intracellular calcium)
Assay type: cell-based
Details: potentiation of EC10-EC30 acetylcholine, values marked a: geometric mean of ≧7 determinations, read-out: M1 PAM Inflection Point (μM) Geometric mean of 2-6 determinations (unless otherwise indicated)
Procedure: This assay was designed to select and characterize compounds that affect the activity of human M1 muscarinic acetylcholine receptors (Similar M1 PAM FLIPR assays can be found, for example, at U.S. Pat. No. 8,664,234). Human M1 receptors were stably expressed in Chinese hamster ovary (CHO) cells (HD Bioscience). The effect of test compounds on intracellular calcium was measured on an FLIPR Tetra (Molecular Devices) using the Fluo-8, AM calcium dye (Molecular Probes) with a red dye quenching agent (Sigma).
CHO cells expressing hM1 cells had been previously cultured and frozen in assay ready vials. Cell vials were thawed, then plated at a density of 10,000 cells per well in a 384 well black wall, clear bottom plate (Greiner #781090) and incubated overnight at 37 degrees C. with 5% CO2. Cells were grown and plated in F12 nutrient media (Gibco BRL #21700-075) supplemented with 10% FBS (Hyclone #CH30160.03) and Pen/Strep (Gibco #15070-063).
After overnight incubation, cell plates were removed from the incubator and the growth media was discarded and replaced with loading solution containing the following: 2 μM Fluo-8-AM (Molecular Probes #F14242), 2 mM Probenecid (Sigma #P8761), lx Acid Red 1 (Sigma #210633), in HBSS buffer containing (grams/L): 0.1 CaCl2, 0.1 MgCl2*6H2O, 0.049 MgSO4, 0.4 KCl, 0.06 KH2PO4, 8.06 NaCl, 0.12 Na2HPO4*12H2O, 1.1 D-glucose*H2O, 0.35 NaHCO3, 4.766 HEPES, pH 7.4. The plate was incubated in the loading solution at 37 degrees C. in the dark for 1 hour.
Test compounds were initially prepared as 100% DMSO stock solutions, then transferred and serially diluted in 384-well compound plates (Greiner #784201). Each compound was tested at 10 concentrations in duplicate per experiment. Positive and negative controls for positive allosteric modulator evaluation were 30 μM acetylcholine (Ach) and an EC10-EC30 concentration of acetylcholine, approximately 2 nM but could be adjusted for each experiment to maintain the EC10-EC30 range.
After the 1-hour dye loading incubation, test compounds were added to the cell plate containing Fluo-8. Approximately 10 minutes after compound addition, an EC10-EC30 concentration of acetylcholine was added to each well and the fluorescence measured to determine the PAM potentiation of the compound.
Data was exported from the FLIPR Tetra as maximum fluorescence/minimum fluorescence for each well. The percent effect for each compound well was determined using the mean values for the positive and negative controls on each plate for each read. Percent effect was 100*(compound negative control)/(positive control negative control). Dose response curves were fitted to the compound percent effect data using a 4-parameter logistic fit model to determine PAM (positive allosteric modulator) Inflection Point values. Compounds with inverted U dose response curves had the concentrations greater than the concentration giving the peak response excluded from the fit. Data was reported as Inflection Point. The compounds of Examples 1-72 had activity according to this assay, generally with an Inflection Point (IP) of 10 μM or less (using Inflection Point as a measure of activity). Such a result is indicative of the intrinsic activity of the compounds of the invention as M1 allosteric modulators.

EC50	Structure (SMILES)
0.114 µM	Cc1cnc(C(=O)N[C@H]2CCOC[C@@H]2O)cc1Cc1ccc(-c2cn[nH]c2)cc1 [Example 66, N-[(3R,4S)-3-hydroxytetrahydro-2H-pyran-4-yl]-5-methyl-4-[4-(1H-pyrazol-4-yl)benzyl]pyridine-2-carboxamide]
0.125 µM	COc1cnc(C(=O)N[C@H]2CCCC[C@@H]2O)cc1Cc1ccc(-c2cocn2)cc1 [Example 71, N-[(1S,2S)-2-hydroxycyclohexyl]-5-methoxy-4-[4-(1,3-oxazol-4-yl)benzyl]pyridine-2-carboxamide]
1.22 µM	Cc1cnc(C(=O)NC2CCCCC2(F)F)cc1Cc1ccc(-n2cccn2)cc1 (single isomer, unassigned) [Example 46]
0.104 µM	COc1cnc(C(=O)N[C@H]2CCCC[C@@H]2O)cc1Cc1ccc(-n2cccn2)cc1 [Example 70, N-[(1S,2S)-2-hydroxycyclohexyl]-5-methoxy-4-[4-(1H-pyrazol-1-yl)benzyl]pyridine-2-carboxamide]
1.95 µM	Cc1nnc(-c2ccc(Cc3cc(C(=O)NC4CCOCC4O)ncc3C)cc2)o1 (single isomer, unassigned) [Example 21]
0.146 µM	Cc1nc(-c2ccc(Cc3cc(C(=O)NC4CCOCC4O)ncc3C)cc2)co1 (single isomer, unassigned; (+)) [Example 11, (+)-N-[(3,4-trans)-3-Hydroxytetrahydro-2H-pyran-4-yl]-5-methyl-4-[4-(2-methyl-1,3-oxazol-4-yl)benzyl]pyridine-2-carboxamide]
0.065 µM	COc1cnc(C(=O)N[C@H]2CCOC[C@@H]2O)cc1Cc1ccc(-n2cccn2)cc1 [Example 15, N-[(3R,4S)-3-Hydroxytetrahydro-2H-pyran-4-yl]-5-methoxy-4-[4-(1H-pyrazol-1-yl)benzyl]pyridine-2-carboxamide]
0.06 µM	Cc1cnc(C(=O)N[C@H]2CCOC[C@@H]2O)cc1Cc1ccc(-c2cscn2)cc1 [Example 7, N-[(3R,4S)-3-Hydroxytetrahydro-2H-pyran-4-yl]-5-methyl-4-[4-(1,3-thiazol-4-yl)benzyl]pyridine-2-carboxamide]
1.14 µM	COc1ccc(Cc2cc(C(=O)N[C@H]3CCCC[C@@H]3O)nc(C)c2Cl)cc1 [Example 25, 5-chloro-N-[(1S,2S)-2-hydroxycyclohexyl]-4-(4-methoxybenzyl)-6-methylpyridine-2-carboxamide]
8.63 µM	Cc1noc(CNC(=O)c2cc(Cc3ccc(-n4cccn4)cc3)c(C)cn2)n1 [Example 31, 5-methyl-N-[(3-methyl-1,2,4-oxadiazol-5-yl)methyl]-4-[4-(1H-pyrazol-1-yl)benzyl]pyridine-2-carboxamide]
5.04 µM	Cc1cnc(C(=O)N[C@H]2C[C@H](CO)C2)cc1Cc1ccc(-n2cccn2)cc1 [Example 26, N-[trans-3-(hydroxymethyl)cyclobutyl]-5-methyl-4-[4-(1H-pyrazol-1-yl)benzyl]pyridine-2-carboxamide]
0.116 µM	Cc1cnc(C(=O)N[C@H]2CCOC[C@@H]2O)cc1Cc1ccc(-c2cn(C)nc2C)cc1 [Example 61, 4-[4-(1,3-Dimethyl-1H-pyrazol-4-yl)benzyl]-N-[(3R,4S)-3-hydroxytetrahydro-2H-pyran-4-yl]-5-methylpyridine-2-carboxamide]
4.77 µM	Cc1cnc(C(=O)NC2CC3(COC3)C2)cc1Cc1ccc(-n2cccn2)cc1 [Example 28, 5-methyl-N-(2-oxaspiro[3.3]hept-6-yl)-4-[4-(1H-pyrazol-1-yl)benzyl]pyridine-2-carboxamide]
4.6 µM	Cc1cnc(C(=O)NCC2CCOCC2)cc1Cc1ccc(-n2cccn2)cc1 [Example 32, 5-methyl-4-[4-(1H-pyrazol-1-yl)benzyl]-N-(tetrahydro-2H-pyran-4-ylmethyl)pyridine-2-carboxamide]
1.63 µM	Cc1cnc(C(=O)NC2CCCC2O)cc1Cc1ccc(-n2cccn2)cc1 (racemic) [Example 49, N-[cis-2-hydroxycyclopentyl]-5-methyl-4-[4-(1H-pyrazol-1-yl)benzyl]pyridine-2-carboxamide]
> 5.99 µM	CO[C@H]1CCCC[C@@H]1NC(=O)c1cc(Cc2ccc(-n3cccn3)cc2)c(C)cn1 [Example 22, N-[(1S,2S)-2-methoxycyclohexyl]-5-methyl-4-[4-(1H-pyrazol-1-yl)benzyl]pyridine-2-carboxamide]
> 9.94 µM	Cc1nnc(-c2ccc(Cc3cc(C(=O)NC4CCOCC4O)ncc3C)cc2)o1 (single isomer, unassigned) [Example 20]
5.57 µM	Cc1nc(-c2ccc(Cc3cc(C(=O)N[C@H]4CCOC[C@@H]4O)ncc3C)cc2)no1 [Example 19, N-[(3R,4S)-3-hydroxytetrahydro-2H-pyran-4-yl]-5-methyl-4-[4-(5-methyl-1,2,4-oxadiazol-3-yl)benzyl]pyridine-2-carboxamide]
1.82 µM	Cc1cnc(C(=O)NC[C@@H]2CCCO2)cc1Cc1ccc(-n2cccn2)cc1 [Example 16, 5-Methyl-4-[4-(1H-pyrazol-1-yl)benzyl]-N-[(2S)-tetrahydrofuran-2-ylmethyl]pyridine-2-carboxamide, formate salt]
3.56 µM	Cc1cnc(C(=O)N[C@@H]2CCCCNC2=O)cc1Cc1ccc(-n2cccn2)cc1 [Example 37, 5-methyl-N-[(3R)-2-oxoazepan-3-yl]-4-[4-(1H-pyrazol-1-yl)benzyl]pyridine-2-carboxamide]
4.83 µM	CC[C@@H](CO)NC(=O)c1cc(Cc2ccc(-n3cccn3)cc2)c(C)cn1 [Example 39, N-[(2S)-1-hydroxybutan-2-yl]-5-methyl-4-[4-(1H-pyrazol-1-yl)benzyl]pyridine-2-carboxamide]
0.96 µM	Cc1cnc(C(=O)NC2CCCCC2O)cc1Cc1ccc(-n2cccn2)cc1 (single isomer, unassigned; (-)) [Example 12, (−)-N-[(1,2-cis)-2-Hydroxycyclohexyl]-5-methyl-4-[4-(1H-pyrazol-1-yl)benzyl]pyridine-2-carboxamide]
0.086 µM	COc1cnc(C(=O)N[C@H]2CCOC[C@@H]2O)cc1Cc1ccc(-c2coc(C)n2)cc1 [Example 58, N-[(3R,4S)-3-Hydroxytetrahydro-2H-pyran-4-yl]-5-methoxy-4-[4-(2-methyl-1,3-oxazol-4-yl)benzyl]pyridine-2-carboxamide]
0.125 µM	Cc1cnc(C(=O)N[C@H]2CCOC[C@@H]2O)cc1Cc1ccc(-c2cnn(C)c2)cc1F [Example 2, 4-[2-Fluoro-4-(1-methyl-1H-pyrazol-4-yl)benzyl]-N-[(3R,4S)-3-hydroxytetrahydro-2H-pyran-4-yl]-5-methylpyridine-2-carboxamide]
3.82 µM	Cc1cnc(C(=O)N[C@H]2CC[C@@H](O)CC2)cc1Cc1ccc(-n2cccn2)cc1 [Example 29, N-(cis-4-hydroxycyclohexyl)-5-methyl-4-[4-(1H-pyrazol-1-yl)benzyl]pyridine-2-carboxamide]
0.092 µM	Cc1cnc(C(=O)N[C@H]2CCCC[C@@H]2O)cc1Cc1ccc(-n2cccn2)cc1 [Example 18, N-[(1S,2S)-2-Hydroxycyclohexyl]-5-methyl-4-[4-(1H-pyrazol-1-yl)benzyl]pyridine-2-carboxamide]
4.39 µM	Cc1cnc(NC(=O)c2cc(Cc3ccc(-n4cccn4)cc3)c(C)cn2)nc1 [Example 24, 5-methyl-N-(5-methylpyrimidin-2-yl)-4-[4-(1H-pyrazol-1-yl)benzyl]pyridine-2-carboxamide]
